Data set [1] deals with Salmonella typhimurium strains TA1535, TA1537, TA98 and TA100, and Escherichia coli WP2 uvrA (pKM101). The data set can be described thus: Ames test. Format: cell-based. The following applies: absence or presence of rat liver S9. The method, then: Salmonella typhimurium strains TA1535, TA1537, TA98 and TA100, and Escherichia coli WP2 uvrA (pKM101) were employed. Positive controls were respectively sodium azide (2 μg/plate), 9-amino acridine (50 μg/plate), 2-nitrofluorene (1 μg/plate), sodium azide (2 μg/plate) and 4-nitroquinoline-1-oxide (2 μg/plate). The negative control was DMSO.

The next data set deals with T1, 5-HT3 (Homo sapiens, UniProt P46098).
T1 construct: purchased Eurofins (Cerep/DiscoverX SafetyScreen44 in vitro pharmacology panel)
T1 sequence (P46098 24-478): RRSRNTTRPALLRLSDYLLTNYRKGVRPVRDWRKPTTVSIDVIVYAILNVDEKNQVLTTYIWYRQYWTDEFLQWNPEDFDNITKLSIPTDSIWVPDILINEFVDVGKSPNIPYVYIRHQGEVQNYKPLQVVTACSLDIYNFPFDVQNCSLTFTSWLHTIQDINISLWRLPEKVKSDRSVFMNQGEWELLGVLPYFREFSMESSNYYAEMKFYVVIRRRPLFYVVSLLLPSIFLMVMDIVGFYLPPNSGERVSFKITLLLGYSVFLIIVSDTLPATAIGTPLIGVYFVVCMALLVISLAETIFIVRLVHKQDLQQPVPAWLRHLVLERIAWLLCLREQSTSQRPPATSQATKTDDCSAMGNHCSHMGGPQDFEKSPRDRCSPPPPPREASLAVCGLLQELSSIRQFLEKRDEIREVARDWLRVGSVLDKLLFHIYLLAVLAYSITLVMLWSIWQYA
The data set can be described thus: In vitro pharmacology panel (Eurofins). The following applies: read-out: activity (% of DMSO control). It is filed as binding. An excerpt: (§1) Listed values represent the percent change relative to the DMSO control activity. When an IC50 had to be determined, eight different concentrations were included. All values are the mean of assay readout duplicates.

Another data set deals with T2, κ (KOP) (Rattus norvegicus, UniProt P34975).
T2 construct: purchased Eurofins (Cerep/DiscoverX SafetyScreen44 in vitro pharmacology panel)
T2 sequence (P34975 whole entry): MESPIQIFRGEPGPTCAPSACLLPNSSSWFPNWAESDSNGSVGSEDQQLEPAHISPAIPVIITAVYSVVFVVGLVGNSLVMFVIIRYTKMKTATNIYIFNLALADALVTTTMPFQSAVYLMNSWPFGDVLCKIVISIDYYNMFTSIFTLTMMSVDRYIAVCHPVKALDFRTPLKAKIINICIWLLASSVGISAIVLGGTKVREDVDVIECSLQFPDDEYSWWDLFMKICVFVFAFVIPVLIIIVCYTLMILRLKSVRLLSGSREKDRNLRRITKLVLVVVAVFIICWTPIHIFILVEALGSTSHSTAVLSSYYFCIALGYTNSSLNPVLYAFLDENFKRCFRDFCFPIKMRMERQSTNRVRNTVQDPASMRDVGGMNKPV
As to the kind of experiment: In vitro pharmacology panel (Eurofins). It is filed as binding. The following applies: read-out: activity (% of DMSO control).
Source text: as §1

For data set [2], the system named is L5178Y mouse lymphoma cells. As to the kind of experiment: In vitro mutation assay at the TK locus. The following applies: absence or presence of rat liver S9. Format: cell-based. Here is the method: Two independent mutation tests were carried out: one in which cells were treated for 3 h in the presence of rat liver S9 mix and with […] as a positive control, and a second treated for 24 h in the absence of S9 mix and with […] as a positive control. In both cases, DMSO was used as the negative control. In accordance with current guidelines ICH S2(R1), 2011 ([41]) mutant frequency was counted at concentrations where solubility was not a limiting factor and cytotoxicity was not observed.

A short description of data set [3]: In vitro cytotoxicity assay. To be noted: human, HepG2 human hepatocellular carcinoma cells. Format: cell-based.
The target of the next data set is hERG (Homo sapiens, UniProt Q12809). As to the kind of experiment: In vitro pharmacology panel (Eurofins). Set-up: purchased Eurofins (Cerep/DiscoverX SafetyScreen44 in vitro pharmacology panel). The following applies: human hERG potassium channel, [3H]dofetilide binding assay, probe [3H] Dofetilide, read-out: activity (% of DMSO control).
Sequence of hERG (Q12809 whole entry): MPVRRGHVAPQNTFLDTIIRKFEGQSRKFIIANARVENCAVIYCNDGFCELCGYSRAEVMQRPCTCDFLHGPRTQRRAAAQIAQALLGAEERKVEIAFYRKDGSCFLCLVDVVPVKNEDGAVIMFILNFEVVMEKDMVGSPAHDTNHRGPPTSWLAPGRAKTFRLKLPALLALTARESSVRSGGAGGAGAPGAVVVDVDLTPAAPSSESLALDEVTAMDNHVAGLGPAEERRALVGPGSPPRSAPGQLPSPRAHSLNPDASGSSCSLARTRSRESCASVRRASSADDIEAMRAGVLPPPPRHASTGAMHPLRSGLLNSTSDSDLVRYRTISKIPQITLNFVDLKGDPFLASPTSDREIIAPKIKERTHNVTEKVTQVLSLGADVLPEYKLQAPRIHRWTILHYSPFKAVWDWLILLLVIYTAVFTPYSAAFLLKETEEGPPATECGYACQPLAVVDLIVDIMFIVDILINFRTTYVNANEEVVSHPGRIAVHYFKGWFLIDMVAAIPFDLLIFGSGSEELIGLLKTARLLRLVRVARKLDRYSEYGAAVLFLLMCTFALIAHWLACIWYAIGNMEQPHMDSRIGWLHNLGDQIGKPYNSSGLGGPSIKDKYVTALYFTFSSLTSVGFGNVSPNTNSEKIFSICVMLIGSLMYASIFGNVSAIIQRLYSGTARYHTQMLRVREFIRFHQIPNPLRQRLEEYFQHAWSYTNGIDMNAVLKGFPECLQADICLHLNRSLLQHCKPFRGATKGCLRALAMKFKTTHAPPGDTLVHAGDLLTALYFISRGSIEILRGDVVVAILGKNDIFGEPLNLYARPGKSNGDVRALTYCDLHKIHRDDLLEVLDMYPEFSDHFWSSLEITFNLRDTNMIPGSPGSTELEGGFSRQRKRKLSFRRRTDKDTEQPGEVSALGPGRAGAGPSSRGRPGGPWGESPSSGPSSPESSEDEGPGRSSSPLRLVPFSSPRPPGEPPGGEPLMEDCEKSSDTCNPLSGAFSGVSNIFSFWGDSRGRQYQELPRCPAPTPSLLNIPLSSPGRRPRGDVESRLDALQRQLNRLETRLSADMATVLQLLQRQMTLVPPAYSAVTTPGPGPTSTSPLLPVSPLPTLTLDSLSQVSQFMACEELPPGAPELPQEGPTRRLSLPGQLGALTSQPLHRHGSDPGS
Source text: as §1

Data set [4] can be described thus: In vitro cytotoxicity assay. It is filed as cell-based. The following applies: mouse, 3T3 mouse embryo fibroblasts.
For another data set, the system named is THP-1. As to the kind of experiment: MitoXpress oxygen consumption assay. It is filed as cell-based.
For the next data set, the system named is L. infantum. As to the kind of experiment: Chronic hamster infection model (VL). It is filed as in vivo, golden hamsters. An excerpt:
Female golden hamsters (5 per treatment group) were infected through intracardiac administration of 2x10^7 L. infantum amastigotes obtained from the spleen of a heavily infected donor hamster. […] After 5-day treatment period, followed by a 10-day wash out period, animals were sacrificed, and parasites burden assessed in the three target organs (liver, spleen, and bone-marrow). For this assessment, organs of individual animals were weighed, except for bone-marrow thus only providing a semi-quantitative evaluation only. Impression smears were Giemsa-stained for microscopic evaluation of amastigote burden, expressed as LDU (= mean number of amastigotes/cell × organ weight in mg) and the results were expressed as a percentage reduction compared to the burdens in the control group (vehicle as placebo). For evaluating the presence of viable residual burden after treatment, a promastigote back-transformation assay was conducted. This consisted of the incubation at ambient temperature of aseptically collected pieces of spleen or liver tissue in 1 mL of promastigote back-transformation medium in 24-well plates. For the bone-marrow, resected femurs were flushed with 1 mL medium. The medium consists of HOMEM pH 6.0 prepared as described elsewhere ([5]) with 10% fetal bovine serum (Gibco), 2.5% penicillin/streptomycin and 1% gentamicin (Merck). […]

Data set [5] concerns HEK293F-derived mitochondria. As to the kind of experiment: Calcium loading capacity (CLC) assessment. Format: biochemical. Here is the method:
The CLC of frozen HEK293F-derived mitochondria was determined using a method based on that previously described for fresh rat liver mitochondria ([23]). Briefly, a buffer (130 mM Sucrose, 37.54 mM KCl, 2.5 mM KH2PO4, 5 mM HEPES) containing 0.5 mM Ca^2+ and supplemented with 15 mM succinate, 2.5 μM rotenone and 0.15 μg/ml cell impermeant Fluo 5N (Life Technologies), was added to each well of a 384 well microplate (control wells also contained 0.24 μl/well DMSO or 3 μM cyclosporine). Thawed mitochondria suspended at 0.6 mg/ml were added to all wells to initiate the assay, and the fluorescence measured every 5 minutes at 520 nm in a PHERAstar FS microplate reader (BMG LabTech, Aylesbury, UK), (25 reads over 2 hours). Area under the curve (AUC) values for the first 10 reads were exported and the concentration-response relationship was modelled using the following formula: y=((B-A)/(1+(10^X/10^C)^D)+A where B=max, A=min, C=IC50, D=slope. The fitted curves were then used to calculate a pXC50 value.

Data set [6] can be described thus: Solubility in biorelevant buffers. It is filed as physicochemical. Here is the method: The ionization constant (pKa), octanol-pH 7.4 buffer partition coefficient (Log D7.4), solubility in biorelevant buffers (FaSSIF-V2, FeSSIF-V2, FaSSGF and pH 7.4 phosphate buffered saline (PBS)) and Caco-2 permeability were determined according to previously published methods ([10]).

The structures appear in SMILES notation. Converted amounts (≈) assume the structure as drawn. Where two headings read alike, the source gives them in different places.

Regarding `Cc1[nH]c2nc(N)nc(C)c2c1-c1ccc(C#N)c2c1OCO2` [DNDI-6174], the “mutagenic potential (AMES), in words” value in data set [1] was “did not show intrinsic mutagenic potential”. Moreover, the values for the remaining activity at 10 µM at 5-HT3 and at κ (KOP) were 105% and 90.6%, respectively. In addition, the “genotoxicity, in words” value in [2] is recorded as “not genotoxic”. Further, the CC50 is greater than 64 µM in data set [3] and greater than 37 µM in data set [4]. The activity at 10 µM at hERG was determined as 94.2%. Besides, the XC50 with THP-1 is on record as greater than 50 µM. For the same molecule, the pXC50 with THP-1 is less than 4.3. Further, in the data set with L. infantum (given qd for 5 days), the “minimum efficacious daily dose” value was found to be 12.5 mg/kg. Further, in the data set with L. infantum (once daily dosing at and above 12.5 mg/kg, liver, spleen and bone-marrow), the “reduction of the parasite burden” value is “more than 99%”. Further, in data set [5] (HEK mitochondria), the “Mean pXC50, calcium loading capacity” value is 5. Besides, the “XC50, reduction in calcium loading capacity” value in [5] (isolated HEK mitochondria) came out at 10 µM. The solubility in [6] (FaSSGF, pH 1.6, fassgf or other biorelevant, pH 1.6, read-out: Solubility FaSSGF) was 1200 µg/mL (≈ 3900 µM); in data set [6] (FaSSIF-V2, pH 6.5, fassif, pH 6.5, read-out: Solubility FaSSIF), 11 µg/mL (≈ 35.8 µM); in [6] (FeSSIF-V2, pH 5.8, fessif, pH 5.8, read-out: Solubility FeSSIF) it was 54 µg/mL (≈ 176 µM); in data set [6] (phosphate buffered saline (PBS), pH 7.4, aqueous buffer, pH 7.4, read-out: Solubility PBS) it was 6.5 µg/mL (≈ 21.2 µM). For the same molecule, in [6] (pH 1.6), the “Solubility FaSSGF” value was found to be 1190 µg/mL (≈ 3870 µM).

(Values after publication PMC7615677 (Science translational medicine, 2023).)
